Source: patent US11413266B2, “Use of cannabinoids in the treatment of inflammatory skin diseases” (GW Pharma Limited, priority 2015, dated 2022)

Experiments:
MCP-2 = MCP-2 ELISA in supernatants of poly-(I:C)-stimulated HaCaT cells; assay type: cell-based, human; conditions: poly-(I:C)-stimulated HaCaT; for MCP-2 production: 6 h; for MCP-2 protein levels: all tested at 5, 10 and 20 μM, data not shown
IL8 [1] = assay: SEB/TSLP-induced IL8 release in HPV-Ker keratinocytes, ELISA; assay type: cell-based, human; conditions: lower concentrations
IL6 [2] = assay: PolyIC-induced IL6 release in NHEK keratinocytes, ELISA; assay type: cell-based, human; conditions: NHEKs; for PolyIC-induced elevated release of IL6: concentration not singled out (0.3 and 3 μM tested); for TLR3-activation induced augmented release of IL6: higher concentration
IL8 [3] = assay: UVB-induced IL8 release in HaCaT keratinocytes, ELISA; assay type: cell-based, human
IL6 [4] = assay: UVB-induced IL6 mRNA expression in HaCaT keratinocytes, RT-qPCR; assay type: cell-based, human
[5] = system: human epidermal keratinocytes; assay: Summary score, UVB-induced inflammation model (solar dermatitis); assay type: cell-based
IL6 [6] = assay: UVB-induced IL6 release in HaCaT keratinocytes, ELISA; assay type: cell-based, human
IL8 [7] = assay: UVB-induced IL8 release in NHEK keratinocytes, ELISA; assay type: cell-based, human; conditions: NHEKs; only at given (mostly lower) concentrations
HPV-Ker keratinocytes = assay: Summary score, SEB/TSLP-induced inflammation model (atopic dermatitis); assay type: cell-based, human; conditions: for SCORE: sum of +1 anti-inflammatory, 0 no effect, −1 pro-inflammatory, Table 3; for Overall action in the SEB/TSLP-induced inflammation model: conclusion on Table 3
IL8 [8] = assay: UVB-induced IL8 mRNA expression in HaCaT keratinocytes, RT-qPCR; assay type: cell-based, human
IL8 [9] = assay: PolyIC-induced IL8 release in NHEK keratinocytes, ELISA; assay type: cell-based, human; conditions: NHEKs; for TLR3-activation induced augmented release of IL8: higher concentration
[10] = system: human epidermal keratinocytes; assay: Summary score, TLR3-induced inflammation model (microbial infection-induced dermatitis); assay type: cell-based
IL6 [11] = assay: UVB-induced IL6 release in NHEK keratinocytes, ELISA; assay type: cell-based, human; conditions: NHEKs; for UVB-upregulated expression of IL6: only at given (mostly lower) concentrations; for UVB-upregulated IL6: higher concentrations
IL6 [12] = assay: PolyIC-induced IL6 release in HPV-Ker keratinocytes, ELISA; assay type: cell-based, human; conditions: HPV-KER cells
[13] = system: ACD in 2,4-dinitrofluorobenzene (DNFB)-treated wild-type mice; conditions: Karsak et al. 2007, cited from earlier work
[14] = 0.3 μM, sum of +1 anti-inflammatory, 0 no effect, −1 pro-inflammatory, Table 2
[15] = 3 μM, sum of +1 anti-inflammatory, 0 no effect, −1 pro-inflammatory, Table 2
[16] = concentration not singled out (0.3 and 3 μM tested)
[17] = 0.3 μM, sum of +1 anti-inflammatory, 0 no effect, −1 pro-inflammatory, Table 1
[18] = 3 μM, sum of +1 anti-inflammatory, 0 no effect, −1 pro-inflammatory, Table 1

SMILES | MCP-2 production (MCP-2; 5 μM) | MCP-2 production (MCP-2; 10 μM) | MCP-2 production (MCP-2; 20 μM) | SEB/TSLP-induced up-regulation of IL8 release (IL8 [1]) | PolyIC-induced elevated release of IL6 (IL6 [2]) | UVB-upregulated IL8 (ELISA) (IL8 [3]; 0.3 μM) | UVB-upregulated IL8 (ELISA) (IL8 [3]; 3 μM) | UVB-upregulated IL6 (RT-qPCR) (IL6 [4]; 0.3 μM) | SCORE [5, 14] | SCORE [5, 15] | UVB-upregulated IL6 (ELISA) (IL6 [6]; 0.3 μM) | MCP-2 protein levels (MCP-2) | SCORE (HPV-Ker keratinocytes; 0.3 μM) | SCORE (HPV-Ker keratinocytes; 3 μM) | Overall action in the SEB/TSLP-induced inflammation model (HPV-Ker keratinocytes) | UVB-upregulated IL8 (RT-qPCR) (IL8 [8]; 0.3 μM) | SCORE [10, 17] | SCORE [10, 18] | UVB-upregulated IL6 (RT-qPCR) (IL6 [4]; 3 μM) | UVB-upregulated IL6 (ELISA) (IL6 [6]; 3 μM) | also measured
CCCCCc1cc(O)c2c(c1)OC(C)(CCC=C(C)C)C=C2 (stereo not drawn) [CBC, cannabichromene] | no effect | no effect | able to reduce |  |  |  |  |  |  |  |  |  |  |  |  |  |  |  |  |  | 
C=C(C)[C@@H]1CCC(C)=C[C@H]1c1c(O)cc(CCCCC)c(C(=O)O)c1O [CBDA, Cannabidiolic acid] |  |  |  | did not induce any significant effect | dose-dependent suppression | pro-inflammatory effects | pro-inflammatory effects | pro-inflammatory effects | 1 | −1 | pro-inflammatory effects | No effect | 0 | 1 | most effective | pro-inflammatory effects | 7 | 10 |  |  | UVB-upregulated expression of IL8 (IL8 [7]): significantly suppress; UVB-upregulated IL8 (RT-qPCR) (IL8 [8]; 3 μM): pro-inflammatory effects; PolyIC-induced elevated release of IL8 (IL8 [9]; [16]): dose-dependent suppression
C=C(C)[C@@H]1CCC(C)=C[C@H]1c1c(O)cc(CCC)cc1O [CBDV, Cannabidivarin] |  |  |  | did not induce any significant effect | did not affect |  | anti-inflammatory effects | anti-inflammatory effects |  |  |  |  | 0 | 1 | most effective |  |  |  | anti-inflammatory effects | anti-inflammatory effects | SCORE ([5]; 0.3 µM): 2; SCORE ([5]; 3 µM): 5; UVB-upregulated expression of IL6 (IL6 [11]): significantly suppress; UVB-upregulated IL8 (RT-qPCR) (IL8 [8]; 3 μM): anti-inflammatory effects; TLR3-activation induced augmented release of IL8 (IL8 [9]): significantly further augmented; SCORE ([10]; 0.3 µM): 7; SCORE ([10]; 3 µM): 5
C=C(C)[C@@H]1CCC(C)=C[C@H]1c1c(O)cc(CCC)c(C(=O)O)c1O [CBDVA, cannabidivarinic acid] |  |  |  |  |  |  |  |  |  |  |  | No effect |  |  |  |  |  |  |  |  | 
CCCCCc1cc(O)c(C/C=C(\C)CCC=C(C)C)c(O)c1 [CBG, Cannabigerol] | no effect | no effect | able to reduce | did not induce any significant effect | dose-dependent suppression |  | pro-inflammatory effects | anti-inflammatory effects | 2 | 3 |  |  | 0 | 1 | most effective |  | 5 | 9 | anti-inflammatory effects | anti-inflammatory effects | UVB-upregulated IL6 (IL6 [11]): pro-inflammatory effects; UVB-upregulated expression of IL8 (IL8 [7]): significantly suppress; PolyIC-induced elevated release of IL8 (IL8 [9]; [16]): dose-dependent suppression
CCCCCc1cc(O)c(C/C=C(\C)CCC=C(C)C)c(O)c1C(=O)O [CBGA, cannabigerolic acid] |  |  |  |  |  |  |  |  |  |  |  | No effect |  |  |  |  |  |  |  |  | 
CCCc1cc(O)c(C/C=C(\C)CCC=C(C)C)c(O)c1 [CBGV, Cannabigervarin] |  | able to reduce |  |  |  | pro-inflammatory effects | pro-inflammatory effects | anti-inflammatory effects | −1 | 2 | pro-inflammatory effects |  | −1 | 1 |  | pro-inflammatory effects | 5 | 5 | anti-inflammatory effects | anti-inflammatory effects | TLR3-activation induced augmented release of IL6 (IL6 [2]): significantly further augmented; UVB-upregulated expression of IL6 (IL6 [11]): significantly suppress; UVB-upregulated IL8 (RT-qPCR) (IL8 [8]; 3 μM): pro-inflammatory effects; PolyIC-induced elevated release of IL8 (IL8 [9]; [16]): did not affect; PolyIC-induced IL6 levels (IL6 [12]; 0.3 μM): did not affect; TLR3-activation induced augmented release of IL6 (IL6 [12]; 3 μM): significantly further augmented
CCCCCc1cc(O)c2c(c1)OC(C)(C)[C@@H]1CCC(C)=C[C@@H]21 [THC, tetrahydrocannabinol] |  |  |  |  |  |  |  |  |  |  |  |  |  |  |  |  |  |  |  |  | ACD ([13]; subcutaneous and topical application): attenuated; ear swelling ([13]; vs untreated mice): significantly decreased; recruitment of Gr-1 positive granulocytes ([13]; vs untreated mice): reduced
CCCc1cc(O)c2c(c1)OC(C)(C)[C@@H]1CCC(C)=C[C@@H]21 [THCV, Tetrahydrocannabivarin] | no effect | able to reduce | able to reduce |  |  | anti-inflammatory effects | pro-inflammatory effects |  | 4 | 0 | anti-inflammatory effects |  | −1 | 1 |  | anti-inflammatory effects | 7 | 7 | anti-inflammatory effects | pro-inflammatory effects | TLR3-activation induced augmented release of IL6 (IL6 [2]): significantly further augmented; PolyIC-induced IL6 level (IL6 [2]; low concentration): did not affect; UVB-upregulated IL6 (IL6 [11]): pro-inflammatory effects; TLR3-activation induced augmented release of IL8 (IL8 [9]): did not affect; PolyIC-induced elevated release of IL8 (IL8 [9]; low concentration): significantly suppressed
CCCc1cc2c(c(O)c1C(=O)O)[C@@H]1C=C(C)CC[C@H]1C(C)(C)O2 [THCVA, tetrahydrocannabivarinic acid] |  |  |  |  |  |  |  |  |  |  |  | No effect |  |  |  |  |  |  |  |  | 
